Assay results from publication PMC6862331, “Identification of Isoform-Selective Ligands for the Middle Domain of Heat Shock Protein 90 (Hsp90)” (International Journal of Molecular Sciences, 2019).
Several values for one entry are separate records, joined by “and”; a condition that tells them apart may be missing. Equal entries are not always repeated. Entries after “also recorded” stand apart in the source; their conditions may differ. Where two headings read alike, the source gives them in different places.

Columns and labels:
[1] = target: T1, recombinant human Hsp90α MD (Homo sapiens, UniProt P07900); assay: Intrinsic tryptophan fluorescence spectroscopy (quenching screen and KD titration) with Hsp90α MD; format: binding; details: for binding to Hsp90α MD in initial screening: less than 40% quenching eliminated
T1 construct: made in house; host or cells: Escherichia coli BL21 (DE3)
Source text: (§1) As a result of virtual screening, 24 hit compounds (Figure 1 and Table S3) were selected for further experimental testing against recombinant human Hsp90α MD (residues 294 to 554, Table S4) and human Hsp90β MD (residues 286 to 546, Table S5). As there are tryptophan residues located within the defined binding pocket in both Hsp90α MD and Hsp90β MD, intrinsic tryptophan fluorescence quenching experiment was used to screen the binding of our virtual hits to the proteins. Initial screening experiments were conducted by using 20 μM of Hsp90α/β MD and 1 mM of compounds. Molecules that gave less than 40% fluorescence quenching were eliminated.
(§2) We then focussed on studying the binding of our compounds (5, 8, 9, 10, 12, 17, 22, 24) to both Hsp90α MD and Hsp90β MD. Titration experiments were performed to quantify the binding affinity (dissociation constant, KD) to Hsp90α MD and Hsp90β MD (Table 1 and Figures S3–S10). The KD values of gambogic acid were also measured as control (Table 1 and Figure S11). […] Our KD values for gambogic acid are in agreement with previous studies (~10-fold preference). The selectivity for the β-isoform (over α-isoforms) was progressively less for weaker binders.
(§3) Fluorescence was measured using EnSpire Multimode Plate Reader (PerkinElmer, Melbourne, Australia). Experiments were performed in 20 µM of Hsp90 MD in 20 mM Tris (pH 7.5) and 0.2 M KCl. Different concentration of the virtual hits (InterBioScreen, Bar, Montenegro) or gambogic acid were added to the mixture. Excitation wavelength was 280 nm and intrinsic fluorescence was measured between 300 and 450 nm. The control experiment with Hsp90 MD on its own was conducted. Background fluorescence arising from the compound was subtracted to generate the final spectrum. The total volume per well of the 96-well microplate was 30 µL. Non-linear curve fitting of Equation (1) to the data was conducted using SigmaPlot 14.0 (Systat Software, San Jose, CA, USA). All tests were conducted in triplicate and the errors shown are standard deviation. KD was calculated for each binder using Equation (1), where Δobs is the changes in fluorescence intensity from the titrations, Δmax is the maximum fluorescence intensity change, [LT] represents the titrated ligand concentration, and [PT] indicates the protein concentration.
(§4) (1) Δobs=Δmax×(KD+[LT]+[PT])−(KD+[LT]+[PT])^2−(4×[PT]×[LT])/2×[PT]
(§5) Supplementary Figure S2. Screening of the virtual hits (1 mM) to Hsp90α/β MD (20 μM) by intrinsic protein fluorescence. Percentage fluorescence quenching was calculated with the […]
(§6) % Fluorescence quenching = (Iprotein − Iprotein+compound) […]
(§7) In which Iprotein denotes intrinsic fluorescence intensity of the protein in the absence of any compound, Iprotein+compound denotes intrinsic fluorescence intensity of the protein in the presence of the compound. Experiments were conducted in triplicate. Errors shown are standard […]
(§8) (1 picture or pasted object on this page, not shown here)

[2] = target: T2, recombinant human Hsp90β MD (Homo sapiens, UniProt P08238); assay: Intrinsic tryptophan fluorescence spectroscopy (quenching screen and KD titration) with Hsp90β MD; format: binding; details: for binding to Hsp90β MD in initial screening: less than 40% quenching eliminated; for Kd: titration, 20 µM Hsp90 MD, 20 mM Tris pH 7.5, 0.2 M KCl, triplicate, error = SD; for selectivity (preference) for the β-isoform over the α-isoform in terms of KD: Hsp90β MD vs Hsp90α MD
T2 construct: made in house; host or cells: Escherichia coli BL21 (DE3)
T2 sequence (P08238 286-546): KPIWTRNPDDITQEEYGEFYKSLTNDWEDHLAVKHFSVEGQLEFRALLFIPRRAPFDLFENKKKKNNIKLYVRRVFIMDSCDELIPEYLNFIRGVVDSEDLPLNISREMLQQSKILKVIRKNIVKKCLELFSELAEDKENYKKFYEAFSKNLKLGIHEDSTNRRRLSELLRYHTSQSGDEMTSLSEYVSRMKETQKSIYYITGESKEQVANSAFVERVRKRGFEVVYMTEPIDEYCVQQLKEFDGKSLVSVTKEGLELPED
Source text: as §1, §2, §3, §4, §5, §6, §7, §8

[3] = target: T2, recombinant human Hsp90β MD; parameters: method as in PMID 27466407; details: cited from earlier work
[4] = titration, 20 µM Hsp90 MD, 20 mM Tris pH 7.5, 0.2 M KCl, triplicate, error = SD, read-out: KD to Hsp90α MD
[5] = initial screen, 1 mM compound, 20 μM protein

Structure (SMILES) | binding to Hsp90α MD in initial screening ([1]; 1 mM compound, 20 μM protein) | Kd [1, 4] | binding to Hsp90β MD in initial screening ([2]; 1 mM compound, 20 μM protein) | Kd ([2]; read-out: KD to Hsp90β MD) | selectivity (preference) for the β-isoform over the α-isoform in terms of KD [2] | Kd [1] | fluorescence quenching of Hsp90α MD [1, 5] | Kd ([2]; KD to Hsp90β MD) | fluorescence quenching of Hsp90β MD [2, 5] | preference for Hsp90β MD over Hsp90α MD, previous study [3]
CCC[C@@H](NC(=O)C(C)Oc1ccc2c(-c3ccccc3)cc(=O)oc2c1)C(=O)O (stereo partly drawn) [Compound 5, (2R)-2-(2-((2-oxo-4-phenyl-2H-chromen-7-yl)oxy)propanamido)pentanoic acid] | bind to both Hsp90α MD and Hsp90β MD | 470 ± 2 µM | bind to both Hsp90α MD and Hsp90β MD | 136 ± 1 µM |  |  |  |  |  | 
O=C(CNC(=O)OCc1ccccc1)Oc1cc(O)c2c(=O)cc(-c3ccccc3)oc2c1 [Compound 8, 5-hydroxy-4-oxo-2-phenyl-4H-chromen-7-yl ((benzyloxy)carbonyl)glycinate] | bind to both Hsp90α MD and Hsp90β MD | 284 ± 4 µM | bind to both Hsp90α MD and Hsp90β MD | > 500 µM | slight preference for Hsp90α MD |  |  |  |  | 
CCC(C)[C@@H](NC(=O)C(C)Oc1ccc2c(-c3ccccc3)cc(=O)oc2c1)C(=O)O (stereo partly drawn) [Compound 9, (2R)-3-methyl-2-(2-((2-oxo-4-phenyl-2H-chromen-7-yl)oxy)propanamido)pentanoic acid] | bind to both Hsp90α MD and Hsp90β MD | 299 ± 3 µM | bind to both Hsp90α MD and Hsp90β MD | 57 ± 1 µM |  |  |  |  |  | 
CN[C@H]1CCc2cc(OC)c(OC)c(OC)c2-c2ccc(NCc3cccnc3)c(=O)cc21 [Compound 10, (S)-1,2,3-trimethoxy-7-(methylamino)-10-((pyridin-3-ylmethyl)amino)-6,7-dihydrobenzo[a]heptalen-9(5H)-one] |  |  |  |  | bind stronger to Hsp90β MD than to Hsp90α MD | > 500 µM | ~ 20% | > 100 µM and 164 µM | ~ 90% | 
O=C(CC1=C(O)C(=O)c2ccccc2C1=O)c1ccccc1 [Compound 12, 2-hydroxy-3-(2-oxo-2-phenylethyl)naphthalene-1,4-dione] | bind to both Hsp90α MD and Hsp90β MD | 92 ± 0.8 µM | bind to both Hsp90α MD and Hsp90β MD | < 20 µM | bind stronger to Hsp90β MD than to Hsp90α MD; also recorded: seven-fold |  |  |  |  | 
CC(=O)N[C@H]1[C@H](Oc2ccc3c(=O)c(-c4ccc5c(c4)OCCCO5)c(C)oc3c2)O[C@H](CO)[C@@H](O)[C@@H]1O [Compound 17, N-((2S,3R,4R,5S,6R)-2-((3-(3,4-dihydro-2H-benzo[b][1,4]dioxepin-7-yl)-2-methyl-4-oxo-4H-chromen-7-yl)oxy)-4,5-dihydroxy-6-(hydroxymethyl)tetrahydro-2H-pyran-3-yl)acetamide] | bind to both Hsp90α MD and Hsp90β MD | 506 ± 4 µM | bind to both Hsp90α MD and Hsp90β MD | > 100 µM and 285 µM | bind stronger to Hsp90β MD than to Hsp90α MD |  |  |  |  | 
COc1cc(C(=O)NC(Cc2ccccc2)C(=O)O)cc(OC)c1OC (centres unmarked) [Compound 22, (3,4,5-trimethoxybenzoyl)phenylalanine] | bind to both Hsp90α MD and Hsp90β MD | 459 ± 7 µM | bind to both Hsp90α MD and Hsp90β MD | > 500 µM | slight preference for Hsp90α MD |  |  |  |  | 
COc1cc(C2NC(C(=O)O)Cc3c2[nH]c2ccc(OCc4ccccc4)cc32)cc(OC)c1OC (centres unmarked) [Compound 24, 6-(benzyloxy)-1-(3,4,5-trimethoxyphenyl)-2,3,4,9-tetrahydro-1H-pyrido[3,4-b]indole-3-carboxylic acid] | bind to both Hsp90α MD and Hsp90β MD | 661 ± 3 µM | bind to both Hsp90α MD and Hsp90β MD | > 100 µM and 265 µM | bind stronger to Hsp90β MD than to Hsp90α MD |  |  |  |  | 
CC(C)=CCC[C@]1(C)C=Cc2c(O)c3c(c(CC=C(C)C)c2O1)O[C@]12C(=C[C@@H]4C[C@H]1C(C)(C)O[C@@]2(C/C=C(/C)C(=O)O)C4=O)C3=O [Gambogic acid, reference compound] |  | 195 ± 5 µM |  | 33 ± 2 µM |  |  |  |  |  | ~ 7 fold
